Like-named read-outs stand apart in the source and are kept apart here.
Columns and labels:
[1] = molecular target: T1, acetylcholinesterase (AChE) (Electrophorus electricus, UniProt O42275); assay: In vitro cholinesterase activity assay (Ellman), AChE; assay type: biochemical; conditions: for IC50: concentrations up to 125 μM, Mean ± SEM, read-out: IC50 Acetylcholine Esterase Mean ± SEM; for SI: selectivity index (BChE/AChE): ratio of IC50 BChE/AChE
T1 construct: purchased Sigma-Aldrich Co. (St. Louis, MO, USA)
T1 sequence (O42275 24-633): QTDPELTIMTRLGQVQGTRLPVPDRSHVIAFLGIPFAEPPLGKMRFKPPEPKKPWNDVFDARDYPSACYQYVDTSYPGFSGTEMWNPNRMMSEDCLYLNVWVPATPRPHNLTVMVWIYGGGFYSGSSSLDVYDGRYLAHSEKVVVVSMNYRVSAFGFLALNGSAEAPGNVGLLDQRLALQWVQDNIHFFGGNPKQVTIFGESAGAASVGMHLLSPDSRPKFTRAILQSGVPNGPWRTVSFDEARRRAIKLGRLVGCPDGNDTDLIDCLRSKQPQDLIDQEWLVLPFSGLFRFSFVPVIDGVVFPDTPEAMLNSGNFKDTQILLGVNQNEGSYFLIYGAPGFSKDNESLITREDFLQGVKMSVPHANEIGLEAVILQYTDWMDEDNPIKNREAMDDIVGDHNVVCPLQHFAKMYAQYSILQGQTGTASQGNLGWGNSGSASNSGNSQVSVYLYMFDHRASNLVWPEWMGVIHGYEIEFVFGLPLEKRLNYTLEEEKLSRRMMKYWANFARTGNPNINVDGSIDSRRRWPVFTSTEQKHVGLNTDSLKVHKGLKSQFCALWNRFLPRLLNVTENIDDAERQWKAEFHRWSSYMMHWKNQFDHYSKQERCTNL
Experimental: (§1) The reaction started with the addition of 10 μL of DTNB and 10 μL of Ach or Bch.
(§2) Briefly, the basis for this assay is the hydrolysis of acetylthiocholine by acetylcholinesterase, producing thiocholine that reacts with DTNB. […] Degrees of inhibition were calculated according to […] wherein E and S represent enzyme activities in the presence and absence of a test sample, respectively.
(§3) The compounds of Table 1 were evaluated for anti-Alzheimer activity. In this regard, inhibitory activity against AChE (acetylcholinesterase) and BChE (butyrylcholinesterase), which lyse acetylcholine in the central nervous system, was measured according to the Experimental Method to calculate IC(inhibition concentrations)50 values.

[2] = molecular target: T2, BACE1 (β-secretase, recombinant human enzyme) (Homo sapiens, UniProt P56817); assay: In vitro BACE1 activity assay (FRET kit); assay type: biochemical; conditions: compounds in 10% DMSO, concentrations up to 125 μM
T2 construct: purchased Pan Vera Co. (Madison, WI, USA)
T2 sequence (P56817 46-501): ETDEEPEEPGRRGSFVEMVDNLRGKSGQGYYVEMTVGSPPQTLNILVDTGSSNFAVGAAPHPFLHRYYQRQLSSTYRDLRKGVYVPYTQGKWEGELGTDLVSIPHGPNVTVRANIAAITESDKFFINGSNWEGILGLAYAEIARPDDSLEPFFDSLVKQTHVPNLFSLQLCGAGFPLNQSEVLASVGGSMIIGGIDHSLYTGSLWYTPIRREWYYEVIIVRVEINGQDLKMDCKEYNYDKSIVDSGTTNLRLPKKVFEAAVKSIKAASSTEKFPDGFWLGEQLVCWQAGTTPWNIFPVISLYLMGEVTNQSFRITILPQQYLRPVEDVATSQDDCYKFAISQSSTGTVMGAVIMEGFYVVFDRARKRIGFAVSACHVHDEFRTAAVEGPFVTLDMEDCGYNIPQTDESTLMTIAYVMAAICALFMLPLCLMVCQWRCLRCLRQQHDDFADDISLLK
Text: BACE1 (beta-secretase) FRET assay kit was purchased from Pan Vera Co. (Madison, WI, USA). All the chemicals and solvents used in column chromatography were of reagent grade and were used as received without further purification.
A BACE1 fluorescence resonance energy transfer (FRET) assay kit (β-secretase, recombinant human enzyme) was purchased from Pan Vera Co. (Madison, WI, USA).
BACE1 is an enzyme promotive of the production of β-amyloid, which destroys neurons. In order to examine the effects on the compounds of Table 1 on the activity of BACE1, IC(inhibition concentrations)50 values were determined by measuring BACE1 activity in vitro according to Experimental Methods.

[3] = tested on: NIH3T3 cells; assay: MTT cytotoxicity assay, normal cell line NIH3T3; assay type: cell-based; conditions: NIH3T3 mouse embryo fibroblast, 48 hours incubation
Experimental: (§4) The normal cell line NIH3T3 (mouse embryo fibroblast cell-line) and the cancerous cell line B16F10 (mouse melanoma cell-line) were separately grown in 96-well plates and incubated for 48 hours with predetermined concentrations of each of the compounds. After additional incubation with MTT, absorbance at 550 nm was read using a microplate reader. Absorbance is an index accounting for a number of viable cells and was used to calculate cell proliferation rates according to the following formula. All experiments were conducted three times for reproducibility. Cell proliferation rate (%)=OD550(sample)/OD550(control)
(§5) Then, LD50 (Lethal Dose 50) values were calculated on the basis of changes in the cell proliferation rate.

[4] = tested on: B16F10 cells; assay: MTT cytotoxicity assay, cancerous cell line B16F10; assay type: cell-based; conditions: B16F10 mouse melanoma, 48 hours incubation
Experimental: as §4, §5

[5] = molecular target: T3, butyrylcholinesterase (BChE) (Equus caballus, UniProt P81908); assay: In vitro cholinesterase activity assay (Ellman), BChE; assay type: biochemical; conditions: concentrations up to 125 μM; Mean ± SEM; read-out: IC50 Butyrylcholine esterase Mean ± SEM
T3 construct: horse serum butyrylcholinesterase (BChE, EC3.1.1.8); purchased Sigma-Aldrich Co. (St. Louis, MO, USA); host or cells: horse serum
T3 sequence (P81908 whole entry): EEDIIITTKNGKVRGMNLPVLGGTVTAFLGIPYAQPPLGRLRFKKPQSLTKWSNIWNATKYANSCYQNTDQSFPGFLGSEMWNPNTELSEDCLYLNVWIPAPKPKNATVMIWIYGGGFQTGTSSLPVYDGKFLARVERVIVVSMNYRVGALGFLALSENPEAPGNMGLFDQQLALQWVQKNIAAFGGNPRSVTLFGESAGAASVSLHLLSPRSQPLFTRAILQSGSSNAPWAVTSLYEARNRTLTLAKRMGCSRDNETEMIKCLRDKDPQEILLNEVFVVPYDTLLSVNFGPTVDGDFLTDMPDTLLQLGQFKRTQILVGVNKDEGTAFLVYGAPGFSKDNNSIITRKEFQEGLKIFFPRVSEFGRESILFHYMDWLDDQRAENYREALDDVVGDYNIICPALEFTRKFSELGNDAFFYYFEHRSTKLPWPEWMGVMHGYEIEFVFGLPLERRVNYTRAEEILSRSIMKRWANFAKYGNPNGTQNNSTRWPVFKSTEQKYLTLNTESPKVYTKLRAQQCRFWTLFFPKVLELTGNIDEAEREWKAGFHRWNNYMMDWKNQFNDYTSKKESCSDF
Experimental: as §1, §2, §3

[6] = molecular target: T4, BACE1 (Homo sapiens, UniProt P56817); assay: BACE1 enzyme kinetics (Dixon plot and Lineweaver plot); assay type: biochemical
T4 construct: purchased Pan Vera Co. (Madison, WI, USA)
T4 sequence (P56817 46-501): as the sequence (P56817 46-501) above
Experimental: A BACE1 fluorescence resonance energy transfer (FRET) assay kit (β-secretase, recombinant human enzyme) was purchased from Pan Vera Co. (Madison, WI, USA). The assay was carried out according to the manual provided, with a modification made thereto as described by Jung et al. (Jung et al., Biol Pharm Bull, 2010, 33:267-272). Quercetin was used as a positive control.
In addition, an enzyme kinetics experiment was conducted using the Lineweaver plot and Dixon plot (see FIG. 7) in order to examine the BACE1 inhibition mechanism of the novel compound (Compound 2). […] The results of the experiment indicate that the novel compound of the present disclosure is a very potent inhibitor against BACE1.

[7] = molecular target: T1, acetylcholinesterase (AChE); assay: AChE enzyme kinetics (Dixon plot and Lineweaver plot); assay type: biochemical
Experimental: as §1, §2

[8] = molecular target: T3, butyrylcholinesterase (BChE); assay: BChE enzyme kinetics (Dixon plot and Lineweaver plot); assay type: biochemical
Experimental: as §1, §2

[9] = listed as 3-[2-(1-acetylcycloproply)-1-propenyl]-5-methyl-2-cyclopenten-1-one

Row | Structure (SMILES) | IC50 [1] [µM] | SI: selectivity index (BChE/AChE) [1] | IC50 [2] [µM] | LD50 Normal cell NIH3T3 [3] | LD50 Cancer cell B16F10 [4] | IC50 [5] [µM] | Ki [6] [µM] | also measured
1 | Cc1cc2c(c(C)c1CCO[C@@H]1OC(CO)[C@@H](O)C(O)C1O)C(=O)[C@](C)(O)C2 (single isomer, unassigned; (-)) [Compound 18, (−)-pteroside N] | 4.47 ± 0.29 | 1.7 | 30.6 ± 1.8 | >5,000 μM | >5,000 μM | 7.39 ± 0.99 |  | 
2 | COc1ccc2cc3[n+](cc2c1OC)CCc1cc2c(cc1-3)OCO2 [Berberine, reference compound] | 0.39 ± 0.01 |  |  |  |  |  |  | 
3 | CC(=O)C1(/C(C)=C\C2=CC(=O)C(C)C2)CC1 (stereo not shown) [Compound 2, 3-[2-(1-Acetylcyclopropyl)-1-propenyl)-5-methyl-2-cyclopenten-1-one] |  | 0.83 |  | 1,550 μM | 688 µM |  | 19 | Inhibition type BACE1 [6, 9]: Mixed-type; Inhibition type BACE1 ([6]; listed as novel compound): mixed type; LD50 Normal cell NIH3T3 [3, 9]: 1,550 ± 100 μM; LD50 Cancer cell B16F10 [4, 9]: 688 ± 17 µM
4 | Cc1cc2c(c(C)c1CCO)C(=O)[C@](C)(CO)C2 [Compound 3, (2S)-pterosin A] |  | 1.2 |  | >5,000 μM |  |  |  | LD50 Cancer cell B16F10 ([4]; listed as (2S)-Pterosin A): 522 ± 25 µM; LD50 Cancer cell B16F10 ([4]; listed as pterosin A): 522 ± 25 µM
5 | Cc1cc2c(c(C)c1CCO)C(=O)[C@H](C)C2 [Compound 4, (2R)-pterosin B] | 16.2 ± 1 | 3.0 |  |  | >5,000 μM | 48.1 ± 0.59 | 38.3 | Inhibition type BACE1 [6]: noncompetitive type; Inhibition type BACE1 ([6]; listed as (2R)-Pterosin B): Noncompetitive; Inhibition type Acetylcholinesterase [7]: mixed type; Ki [7]: 12.1 µM; Inhibition type Acetylcholinesterase ([7]; listed as (2R)-Pterosin B): Mixed-type; LD50 Normal cell NIH3T3 ([3]; listed as (2,R)-Pterosin B): 3,110 ± 130 μM; LD50 Normal cell NIH3T3 ([3]; listed as pterosin B): 3,110±130 μM; Inhibition type Butyrylcholinesterase [8]: noncompetitive type; Ki [8]: 53.5 µM; Inhibition type Butyrylcholinesterase ([8]; listed as (2R)-Pterosin B): Noncompetitive
6 | Cc1cc2c(c(C)c1CCO)C(=O)[C@H](C)[C@@H]2O [Compound 5, (2R,3S)-pterosin C] |  |  |  | >5,000 μM | >5,000 μM |  |  | 
7 | Cc1cc2c(c(C)c1CCO)C(=O)[C@@H](C)[C@@H]2O [Compound 6, (2S,3S)-pterosin C] |  |  |  | >5,000 μM | >5,000 μM |  |  | 
8 | Cc1cc2c(c(C)c1CCO)C(=O)[C@H](C)[C@H]2O [Compound 7, (2R,3R)-pterosin C] | 23.2 ± 4.6 | 0.89 |  | >5,000 μM | >5,000 μM | 20.3 ± 0.88 | 27.6 | Inhibition type BACE1 [6]: mixed type; Inhibition type BACE1 ([6]; listed as (2R,3R)-Pterosin C): Mixed-type; Inhibition type Acetylcholinesterase [7]: noncompetitive type; Ki [7]: 29.6 µM; Inhibition type Acetylcholinesterase ([7]; listed as (2R,3R)-Pterosin C): Noncompetitive; Inhibition type Butyrylcholinesterase [8]: mixed type; Ki [8]: 4.77 µM; Inhibition type Butyrylcholinesterase ([8]; listed as (2R,3R)-Pterosin C): Mixed-type
9 | Cc1cc2c(c(C)c1CCO)C(=O)[C@@H](C)[C@H]2O [Compound 8, (2S,3R)-pterosin C] | 12.8 ± 0.79 | 3.5 |  | >5,000 μM | >5,000 μM | 44.3 ± 1 | 33.8 | Inhibition type BACE1 [6]: noncompetitive type; Inhibition type BACE1 ([6]; listed as (2S,3R)-Pterosin C): Noncompetitive; Inhibition type Acetylcholinesterase [7]: mixed type; Ki [7]: 16.3 µM; Inhibition type Acetylcholinesterase ([7]; listed as (2S,3R)-Pterosin C): Mixed-type; Inhibition type Butyrylcholinesterase [8]: noncompetitive type; Ki [8]: 29.9 µM; Inhibition type Butyrylcholinesterase ([8]; listed as (2S,3R)-Pterosin C): Noncompetitive
10 | Cc1cc2c(c(C)c1CCO)C(=O)C(C)(C)[C@@H]2O [Compound 9, (3R)-Pterosin D] | 68.7 ± 3.7 |  |  | >5,000 μM | >5,000 μM | > 125 |  | 
11 | Cc1c(CCO)c(CO)cc2c1C(=O)[C@@H](C)C2 [Compound 10, (2S)-pterosin P] | 17.8 ± 0.62 | 3.1 |  | >5,000 μM | >5,000 μM | 55.9 ± 5.6 |  | 
12 | Cc1cc2c(c(C)c1CCO)C(=O)C(C)(C)C2 [Compound 11, pterosin Z] | 46.5 ± 3.4 | 1.7 |  |  |  | 80.1 ± 6.8 |  | LD50 Normal cell NIH3T3 ([3]; listed as PterosinZ): 553 ± 37 µM; LD50 Normal cell NIH3T3 ([3]; listed as pterosin Z): 553 ± 37 µM; LD50 Cancer cell B16F10 ([4]; listed as PterosinZ): 618 ± 71 µM; LD50 Cancer cell B16F10 ([4]; listed as pterosin Z): 618 ± 71 µM
13 | Cc1cc2c(c(C)c1CCO[C@@H]1OC(CO)[C@@H](O)[C@H](O)C1O)C(=O)[C@](C)(CO)C2 (stereo partly drawn) [Compound 12, (2S)-pteroside A] | 110 ± 3 | 0.17 | 84.6 ± 6 | >5,000 μM | >5,000 μM | 19.4 ± 0.22 |  | 
14 | Cc1cc2c(c(C)c1CCO)C(=O)[C@](C)(COC1O[C@H](CO)[C@@H](O)[C@H](O)[C@H]1O)C2 (stereo partly drawn) [Compound 13, (2S)-pteroside A2] | 39.3 ± 1.9 | 3.0 |  | >5,000 μM | >5,000 μM |  |  | 
15 | Cc1cc2c(c(C)c1CCO[C@@H]1OC(CO)[C@@H](O)[C@H](O)C1O)C(=O)[C@@H](C)[C@H]2O (stereo partly drawn) [Compound 15, (2S,3R)-pteroside C] |  | 1.4 | 28.9 ± 2.2 | >5,000 μM | >5,000 μM |  |  | 
16 | Cc1cc2c(c(C)c1CCO[C@@H]1OC(CO)[C@@H](O)[C@H](O)C1O)C(=O)[C@H](C)[C@H]2O (stereo partly drawn) [Compound 16, (2R,3R)-pteroside C] |  | 1.4 | 9.74 ± 1.9 | >5,000 μM | >5,000 μM |  | 12.6 | Inhibition type BACE1 [6]: mixed type; Inhibition type BACE1 ([6]; listed as (2R,3R)-Pteroside C): Mixed-type
17 | Cc1cc2c(c(C)c1CCO[C@@H]1OC(CO)[C@@H](O)[C@H](O)C1O)C(=O)C(C)(C)[C@H]2O (stereo partly drawn) [Compound 17, (3S)-pteroside D] |  | 0.70 | 10.7 ± 1.5 | >5,000 μM | >5,000 μM |  | 16.5 | Inhibition type BACE1 [6]: mixed type; Inhibition type BACE1 ([6]; listed as (3S)-Pteroside D): Mixed-type
18 | Cc1cc2c(c(C)c1CCO[C@@H]1OC(CO)[C@@H](O)[C@H](O)C1O)C(=O)C(C)(C)C2 (stereo partly shown) [Compound 20, pteroside Z] | 22.4 ± 2.2 | 0.24 | 60 ± 4.3 | >5,000 μM | >5,000 μM |  |  | 

From patent US12678413B2, “Compositions containing pterosin compound and derivatives thereof active ingredients for prevention or treatment of degenerative brain diseases” (priority 2017, dated 2026)
